Test results reported in patent publication US7943608B2, “Diazepinoes” (Merck Patent GmbH, priority 2005, dated 2011).

These molecules were tested against T1, His6-PDK1(Δ1-50) (Homo sapiens, UniProt O15530) (assay: Inhibition of PDK1 (IC50), 384-well flashplate kinase assay). Conditions: 4 μM ATP, 400 nM PDKtide, first part of Table 1 (compounds 1-31).
T1 construct: His6 (N)
T1 sequence (O15530 51-556): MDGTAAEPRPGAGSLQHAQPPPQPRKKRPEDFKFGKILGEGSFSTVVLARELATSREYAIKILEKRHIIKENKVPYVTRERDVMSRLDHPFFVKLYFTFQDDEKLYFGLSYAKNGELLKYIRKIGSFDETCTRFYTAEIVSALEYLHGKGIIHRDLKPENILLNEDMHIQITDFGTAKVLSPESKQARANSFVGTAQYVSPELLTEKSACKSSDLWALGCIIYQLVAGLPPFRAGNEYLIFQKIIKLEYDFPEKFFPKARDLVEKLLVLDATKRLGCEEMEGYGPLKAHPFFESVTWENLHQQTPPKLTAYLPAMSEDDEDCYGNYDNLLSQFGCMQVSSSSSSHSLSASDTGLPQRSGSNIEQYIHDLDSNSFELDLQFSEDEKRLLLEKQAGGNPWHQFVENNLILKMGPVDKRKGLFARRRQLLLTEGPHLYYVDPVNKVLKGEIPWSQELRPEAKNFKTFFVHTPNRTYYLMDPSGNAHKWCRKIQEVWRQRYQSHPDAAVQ
Format: biochemical
Protocol: Inhibition of PDK1 (IC50)
The kinase assay can be carried out as a 384-well flashplate assay. 3.4 nM His6-PDK1(Δ1-50), 400 nM PDKtide (biotin-bA-bA-[…]) and 4 μM ATP (with 0.2 μCi of 33P-ATP/well) are incubated at […] for 60 min in a total volume of 50 μl (50 mM TRIS, 10 mM Mg acetate, 0.1% of mercaptoethanol, 0.02% of Brij35, 0.1% of BSA, pH 7.5) with or without test substance (5-10 concentrations). The reaction is stopped using 25 μl of 200 mM EDTA solution, filtered with suction after 30 min at room temperature, and the wells are washed with 3 times 100 μl of 0.9% NaCl solution. The nonspecific content of the kinase reaction (blank) is determined using 100 nM staurosporine. Radioactivity is measured using a Topcount scintillation counter (PerkinElmer, USA). IC50 values are calculated using the RS1 computer program.

Structure (SMILES)	IC50 [nM]
CN1CCC(N(C)c2ncc3c(n2)Nc2ccccc2NC3=O)CC1 [Compound 1]	2300
Cc1ccc2c(c1)Nc1nc(N(C)C3CCN(C)CC3)ncc1C(=O)N2 [Compound 2, 7-Methyl-3-[methyl(1-methylpiperidin-4-yl)amino]-5,10-dihydro-2,4,5,10-tetraazadibenzo[a,d]cyclohepten-11-one]	2400
Cc1cc2c(cc1C)Nc1nc(N(C)C3CCN(C)CC3)ncc1C(=O)N2 [Compound 3, 7,8-Dimethyl-3-[methyl(1-methylpiperidin-4-yl)amino]-5,10-dihydro-2,4,5,10-tetraazadibenzo[a,d]cyclohepten-11-one]	1000
CN1CCC(N(C)c2ncc3c(n2)Nc2ccc(Cl)cc2NC3=O)CC1 [Compound 4, 8-Chloro-3-[methyl(1-methylpiperidin-4-yl)amino]-5,10-dihydro-2,4,5,10-tetraazadibenzo[a,d]cyclohepten-11-one]	1400
COc1ccc2c(c1)NC(=O)c1cnc(N(C)C3CCN(C)CC3)nc1N2 [Compound 5, S-Methoxy-3-[methyl(1-methylpiperidin-4-yl)amino]-5,10-dihydro-2,4,5,10-tetraazadibenzo[a,d]cyclohepten-11-one]	800
Cc1ccc2c(c1)NC(=O)c1cnc(N(C)C3CCN(C)CC3)nc1N2 [Compound 6, 8-Methyl-3-[methyl(1-methylpiperidin-4-yl)amino]-5,10-dihydro-2,4,5,10-tetraazadibenzo[a,d]cyclohepten-11-one]	1100
COc1ccc2c(c1)NC(=O)c1cnc(NC3CCN(C)CC3)nc1N2 [Compound 7, 8-Methoxy-3-(1-methylpiperidin-4-ylamino)-5,10-dihydro-2,4,5,10-tetraazadibenzo[a,d]cyclohepten-11-one]	3100
Cc1cc2c(cc1C)Nc1nc(NC3CCN(C)CC3)ncc1C(=O)N2 [Compound 8, 7,8-Dimethyl-3-(1-methylpiperidin-4-ylamino)-5,10-dihydro-2,4,5,10-tetraazadibenzo[a,d]cyclohepten-11-one]	2500
Cc1ccc2c(c1)Nc1nc(NC3CCN(C)CC3)ncc1C(=O)N2 [Compound 9, 7-Methyl-3-(1-methylpiperidin-4-ylamino)-5,10-dihydro-2,4,56,10-tetraazadibenzo[a,d]cyclohepten-11-one]	4800
CN1CCC(N(C)c2ncc3c(n2)Nc2cc(Cl)ccc2NC3=O)CC1 [Compound 10]	1700
CN1CCC(Nc2ncc3c(n2)Nc2cc(C(F)(F)F)ccc2NC3=O)CC1 [Compound 11]	3900
Cc1ccc2c(c1)NC(=O)c1cnc(NC3CCN(C)CC3)nc1N2 [Compound 12]	900
CN1CCC(N(C)c2ncc3c(n2)Nc2ccc(Br)cc2NC3=O)CC1 [Compound 13]	1700
Cc1ccc2c(c1)NC(=O)c1cnc(N(C)C3CCN(C)CC3)nc1N2 [Compound 14]	400
CCOc1ccc2c(c1)NC(=O)c1cnc(N(C)C3CCN(C)CC3)nc1N2 [Compound 15]	900
CN1CCC(N(C)c2ncc3c(n2)Nc2ccc(C(C)(C)C)cc2NC3=O)CC1 [Compound 16]	400
CN1CCC(N(C)c2ncc3c(n2)Nc2ccc(C(F)(F)F)cc2NC3=O)CC1 [Compound 17]	1600
CN1CCC(Nc2ncc3c(n2)Nc2ccc(C(C)(C)C)cc2NC3=O)CC1 [Compound 18]	700
Cc1ccc2c(c1)NC(=O)c1cnc(NC3CCN(C)CC3)nc1N2 [Compound 19]	600
CCN(c1ncc2c(n1)Nc1ccc(C)cc1NC2=O)C1CCN(C)CC1 [Compound 20]	2800
CCOc1ccc2c(c1)NC(=O)c1cnc(NC3CCN(C)CC3)nc1N2 [Compound 21]	1000
Cc1ccc2c(c1C)Nc1nc(N(C)C3CCN(C)CC3)ncc1C(=O)N2 [Compound 22]	2600
Cc1ccc2c(c1C)Nc1nc(NC3CCN(C)CC3)ncc1C(=O)N2 [Compound 23]	3600
CN1CCC(N(C)c2ncc3c(n2)Nc2ccc(-c4ccsc4)cc2NC3=O)CC1 [Compound 25]	1000
